Source: US20230046081A1, “SYNERGISTIC ACTIVITY OF NOVEL COMPOUNDS AGAINST PLANKTONIC AND BIOFILM CELLS OF CLINICALLY RELEVANT PATHOGENS” (priority 2021, published 2023)
Where a name gives a salt, the structure may show the parent alone.

Columns and labels:
[1] = tested on: bacterial and fungal biofilms (eight test organisms); assay: Rapid biofilm eradication, 48-h old biofilms, 2 hour exposure; format: cell-based
Procedure: This example comprises performing biofilm growth as described above. After biofilm formation, control pegs (n=6) were removed and analyzed to determine the starting biofilm cell numbers via the drop dilution method. The 48-h old biofilms on the pegs were exposed to different concentrations of test antimicrobials, dissolved in an appropriate growth medium, for 2 hours to evaluate their efficacy alone and in combination. […] Following treatment, pegs were washed twice with sterile PBS, and the biofilm cells were dislodged into recovery medium and enumerated as described above.

[2] = tested on: Gram-positive, Gram-negative, and fungal biofilms; assay: MBEC Assay, 48 h old biofilms on pegs, 24 h antimicrobial exposure; format: cell-based; conditions: 24 hours of treatment
Procedure: The evaluation of the biofilm cultivation cell composition was evaluated using an MBEC Assay® biofilm inoculator, consisting of a polystyrene lid with 96 downward-protruding pegs and a corresponding base used to grow biofilms. A standardized inoculum was diluted in an appropriate biofilm growth medium to achieve a viable cell count of 1.5×10^6 CFU/mL of bacterial cells or 5×10^5 CFU/mL of fungal cells. Then, 150 μL of this inoculum was transferred into each appropriate well, and the peg lids were inserted into the microtiter plates. The plates were sealed with Parafilm and were incubated at optimum temperature for 48 h with slight rocking for bacteria and shaking at 200 rpm for fungal strains. After incubation, the peg lid was removed from the base and rinsed twice with sterile phosphate-buffered saline (PBS) for 2 min to remove loosely attached non-sessile cells. Before the antimicrobial challenge, the pegs in column 1 (n=8) were considered as the biofilm growth control; these pegs were removed from the lids, placed into 200 μL of recovery medium, and analyzed for starting biofilm cell numbers as described below. […] After the antimicrobial challenge, the pegs were rinsed twice with sterile PBS for 2 min and placed into a new 96-well plate containing 200 μL of recovery medium. The recovery plates were sealed with Parafilm, and biofilm cells were dislodged from the pegs by sonication for 30 min with a Branson 3510 bath sonicator. The biofilm cells in the recovery medium were serially diluted, and a drop dilution assay was performed to enumerate the viable cells.

[3] = tested on: commonly encountered pathogens; conditions: cited from earlier work
[4] = tested on: Klebsiella pneumoniae, E. coli, S. epidermidis, P. aeruginosa, and C. albicans; conditions: 40 mg/mL, locked for 21-25 h; cited from earlier work
[5] = dog, in vivo; cited from earlier work

SMILES | eradication of preformed biofilms, agent alone at its MBEC [1] | concentration alone able to eradicate all established biofilms [2] | minimum ethanol required to provide a 3-log reduction [3] [%] | biofilm colonization on catheter segments [4] | cochlear or vestibular neurotoxicity [5]
CCO [ethanol, reference compound] | failed to eradicate | 50% | ≥ 60 |  | 
O=C(O)CN(CCN(CC(=O)O)CC(=O)O)CC(=O)O.[Na].[Na].[Na].[Na] [tetrasodium EDTA, tetrasodium ethylenediaminetetraacetic acid] | failed to eradicate | 4% |  | reduced biofilm colonization | 
[H]/N=C(\N/C(=N/[H])NCCCCCCNC(=N)NC(=N)Nc1ccc(Cl)cc1)Nc1ccc(Cl)cc1 [chlorhexidine, 1,6-bis(4-chloro-phenylbiguanido)hexane] |  |  |  |  | did not induce cochlear or vestibular neurotoxicity
[H]/N=C(\N/C(=N/[H])NCCCCCCNC(=N)NC(=N)Nc1ccc(Cl)cc1)Nc1ccc(Cl)cc1 [chlorhexidine HCl, 1,6-bis(4-chloro-phenylbiguanido)hexane, reference compound] | failed to eradicate | 100 µg/mL |  |  | 
